Reference: ChEMBL document CHEMBL1201862, “PubChem BioAssay data set” (2004)
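Growth conditions: 96-well plates. Treatment: test compound, 48 hours, 5 concentrations. Analysis: linear interpolation between bracketing concentrations; unreached endpoints set to highest concentration. GI50: concentration for 50% inhibition of growth.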 Active and inactive are the calls of the source. No stated cut-off is given here; in the data, active = GI50 up to about 1.1 µM and inactive = higher.

How the values were obtained:
Assay in all cases: NCI anticancer screen, dose series, 48 h
[1] = tested on: SK-MEL-28
[2] = tested on: ACHN
[3] = tested on: 786-0
[4] = tested on: NCI-H23
[5] = tested on: UACC-62
[6] = tested on: HCT-15
[7] = tested on: M14
[8] = tested on: RPMI-8226
[9] = tested on: HT-29
[10] = tested on: IGROV-1
[11] = tested on: KM12
[12] = tested on: SNB-75
[13] = tested on: SK-MEL-5
[14] = tested on: CCRF-CEM
[15] = tested on: EKVX
[16] = tested on: LOX IMVI

Structure (SMILES) | GI50 [1] | GI50 [2] | GI50 [3] | GI50 [4] | GI50 [5] | GI50 [6] [µM] | GI50 [7] | GI50 [8] | GI50 [9] | GI50 [10] | GI50 [11] | GI50 [12] | GI50 [13] | GI50 [14] | GI50 [15] | GI50 [16]
CC(=O)O[C@@]1(C)[C@@H](C)C(=O)O[C@@H]2CCN3CC=C(COC(=O)[C@]1(C)O)[C@H]23 | > 100 µM (inactive) | > 100 µM (inactive) | > 100 µM (inactive) | > 100 µM (inactive) | > 100 µM (inactive) | > 100 | > 100 µM (inactive) | > 100 µM (inactive) | > 100 µM (inactive) | > 100 µM (inactive) | > 100 µM (inactive) | 41 µM (inactive) | > 100 µM (inactive) | > 100 µM (inactive) | – | –
N#CC1(Cc2ccccc2[N+](=O)[O-])c2ccccc2C2C(N1C(=O)c1ccccc1)C2(Cl)Cl (stereo unspecified) | > 100 µM (inactive) | 13.2 µM (inactive) | > 100 µM (inactive) | > 100 µM (inactive) | > 100 µM (inactive) | > 100 | > 100 µM (inactive) | – | > 100 µM (inactive) | > 100 µM (inactive) | > 100 µM (inactive) | 52.6 µM (inactive) | > 100 µM (inactive) | > 100 µM (inactive) | > 100 µM (inactive) | > 100 µM (inactive)
COC(=O)[C@]12CCC(C)[C@H](C)[C@H]1C1=CCC3[C@@]4(C)CC[C@H](OC(C)=O)C(C)(C)C4CC[C@@]3(C)C1(C)C(O)C2 (stereo partly specified) | > 100 µM (inactive) | > 100 µM (inactive) | > 100 µM (inactive) | > 100 µM (inactive) | > 100 µM (inactive) | – | > 100 µM (inactive) | 53.7 µM (inactive) | > 100 µM (inactive) | > 100 µM (inactive) | > 100 µM (inactive) | 45.2 µM (inactive) | > 100 µM (inactive) | 89.3 µM (inactive) | > 100 µM (inactive) | 74 µM (inactive)
COc1ccccc1NC(=O)CC(=O)N1N=C(c2ccccc2)C(/N=N/c2ccc(Cl)cc2)C1=O (stereo unspecified) | 37 µM (inactive) | 19.2 µM (inactive) | 13.9 µM (inactive) | 34.4 µM (inactive) | 25.7 µM (inactive) | 58.6 | 59.8 µM (inactive) | > 100 µM (inactive) | 42.7 µM (inactive) | 29.9 µM (inactive) | 49.5 µM (inactive) | 19.7 µM (inactive) | 14.6 µM (inactive) | – | 37.2 µM (inactive) | 22.9 µM (inactive)
CCOC(=N)CC(=O)NC(C)c1ccccc1 (stereo unspecified) | > 100 µM (inactive) | > 100 µM (inactive) | > 100 µM (inactive) | > 100 µM (inactive) | > 100 µM (inactive) | > 100 | > 100 µM (inactive) | – | > 100 µM (inactive) | > 100 µM (inactive) | > 100 µM (inactive) | > 100 µM (inactive) | > 100 µM (inactive) | > 100 µM (inactive) | > 100 µM (inactive) | > 100 µM (inactive)
COc1cc(CCCC(O)COc2cccc3c2C2(O)CCCCCC32)cc(OC)c1 (stereo unspecified) | 17 µM (inactive) | 15.7 µM (inactive) | 15.1 µM (inactive) | 16.9 µM (inactive) | 16.4 µM (inactive) | 17.6 | 17.5 µM (inactive) | 18.5 µM (inactive) | 7.26 µM (inactive) | 15.2 µM (inactive) | 17.2 µM (inactive) | 12.1 µM (inactive) | 7.85 µM (inactive) | 25.8 µM (inactive) | 16 µM (inactive) | –
Cc1cccc(C)c1NC(=O)C1C(=O)N(c2c(C)cccc2C)C(=O)/C1=N\N (stereo unspecified) | > 100 µM (inactive) | > 100 µM (inactive) | > 100 µM (inactive) | > 100 µM (inactive) | > 100 µM (inactive) | > 100 | > 100 µM (inactive) | > 100 µM (inactive) | > 100 µM (inactive) | > 100 µM (inactive) | – | > 100 µM (inactive) | > 100 µM (inactive) | > 100 µM (inactive) | > 100 µM (inactive) | > 100 µM (inactive)
NC(=O)C(c1ccccc1)N1CCOCC1 (stereo unspecified) | > 100 µM (inactive) | > 100 µM (inactive) | > 100 µM (inactive) | > 100 µM (inactive) | > 100 µM (inactive) | > 100 | > 100 µM (inactive) | > 100 µM (inactive) | > 100 µM (inactive) | > 100 µM (inactive) | > 100 µM (inactive) | > 100 µM (inactive) | > 100 µM (inactive) | > 100 µM (inactive) | – | > 100 µM (inactive)
COc1cccc(NC(=O)CC(=O)N2NC(C)C(/N=N/c3cccc(C(=O)O)c3)C2=O)c1 (stereo unspecified) | > 100 µM (inactive) | > 100 µM (inactive) | > 100 µM (inactive) | > 100 µM (inactive) | > 100 µM (inactive) | – | > 100 µM (inactive) | > 100 µM (inactive) | > 100 µM (inactive) | > 100 µM (inactive) | > 100 µM (inactive) | > 100 µM (inactive) | > 100 µM (inactive) | > 100 µM (inactive) | > 100 µM (inactive) | > 100 µM (inactive)
Nc1nc(-c2ccccc2)cc(-c2ccccc2O)n1 | 57.1 µM (inactive) | 27.2 µM (inactive) | 48.6 µM (inactive) | 43.3 µM (inactive) | 59.2 µM (inactive) | – | 81.1 µM (inactive) | 22.6 µM (inactive) | 33.4 µM (inactive) | 49.4 µM (inactive) | 23.9 µM (inactive) | 36.6 µM (inactive) | – | 34 µM (inactive) | 23.7 µM (inactive) | 31.8 µM (inactive)
CC1=C(C(=O)Nc2ccccc2C)C(c2ccccc2)C(C(=O)Nc2ccccc2C)=C(C)N1 | > 100 µM (inactive) | 26.3 µM (inactive) | 68.9 µM (inactive) | 23.7 µM (inactive) | 27.1 µM (inactive) | 40.6 | 39.4 µM (inactive) | – | 34.7 µM (inactive) | 42.7 µM (inactive) | 26.6 µM (inactive) | 35.6 µM (inactive) | 29.2 µM (inactive) | 20.9 µM (inactive) | 27.7 µM (inactive) | 16 µM (inactive)
CN(CN1C(=O)C2Cc3ccccc3CN2C1=O)c1ccccn1 (stereo unspecified) | > 100 µM (inactive) | > 100 µM (inactive) | > 100 µM (inactive) | > 100 µM (inactive) | > 100 µM (inactive) | > 100 | > 100 µM (inactive) | > 100 µM (inactive) | – | > 100 µM (inactive) | > 100 µM (inactive) | – | > 100 µM (inactive) | > 100 µM (inactive) | – | > 100 µM (inactive)
Cc1cccc(-c2nnc3s/c(=C\c4ccc5c(c4)OCO5)c(=O)n23)c1 | > 100 µM (inactive) | > 100 µM (inactive) | > 100 µM (inactive) | > 100 µM (inactive) | > 100 µM (inactive) | > 100 | > 100 µM (inactive) | > 100 µM (inactive) | – | > 100 µM (inactive) | > 100 µM (inactive) | 26.9 µM (inactive) | > 100 µM (inactive) | > 100 µM (inactive) | > 100 µM (inactive) | > 100 µM (inactive)
COc1ccc(/C=C(/C(=O)O)c2cc(OC)c(OC)c(OC)c2)cc1 | 61.9 µM (inactive) | > 100 µM (inactive) | 41.3 µM (inactive) | 27.2 µM (inactive) | 43.6 µM (inactive) | – | 24.2 µM (inactive) | 33.8 µM (inactive) | 42.1 µM (inactive) | > 100 µM (inactive) | 63 µM (inactive) | 21.6 µM (inactive) | 41.1 µM (inactive) | 43.1 µM (inactive) | > 100 µM (inactive) | –
CC(=O)OCC1OC(OC2C(COC(C)=O)OC(Sc3ccccc3C)C(OC(C)=O)C2OC(C)=O)C(OC(C)=O)C(OC(C)=O)C1OC(C)=O (stereo unspecified) | > 100 µM (inactive) | > 100 µM (inactive) | > 100 µM (inactive) | > 100 µM (inactive) | > 100 µM (inactive) | > 100 | > 100 µM (inactive) | > 100 µM (inactive) | > 100 µM (inactive) | > 100 µM (inactive) | > 100 µM (inactive) | > 100 µM (inactive) | > 100 µM (inactive) | – | > 100 µM (inactive) | –
N=C(c1ccccc1)N(c1ccccc1)c1ccccc1 | > 100 µM (inactive) | – | 28.1 µM (inactive) | > 100 µM (inactive) | – | – | > 100 µM (inactive) | – | 42.5 µM (inactive) | – | 25.2 µM (inactive) | > 100 µM (inactive) | – | – | 93.3 µM (inactive) | 18.2 µM (inactive)
CC1(C)N=C(c2ccccn2)C(c2ccccn2)=NC1(C)C | – | > 100 µM (inactive) | > 100 µM (inactive) | – | > 100 µM (inactive) | > 100 | > 100 µM (inactive) | > 100 µM (inactive) | > 100 µM (inactive) | > 100 µM (inactive) | > 100 µM (inactive) | – | > 100 µM (inactive) | > 100 µM (inactive) | > 100 µM (inactive) | > 100 µM (inactive)
CN1C(=O)C(C)(C)C2(SC(C)(C)C2(C)C)N(C)C1=S (stereo unspecified) | > 100 µM (inactive) | > 100 µM (inactive) | > 100 µM (inactive) | > 100 µM (inactive) | 2.12 µM (inactive) | > 100 | > 100 µM (inactive) | > 100 µM (inactive) | > 100 µM (inactive) | > 100 µM (inactive) | > 100 µM (inactive) | > 100 µM (inactive) | > 10 µM (inactive) | > 100 µM (inactive) | 32 µM (inactive) | –
O=CC1=CCCC2(C1)OCCO2 | > 100 µM (inactive) | – | > 100 µM (inactive) | > 100 µM (inactive) | > 100 µM (inactive) | > 100 | > 100 µM (inactive) | > 100 µM (inactive) | > 100 µM (inactive) | > 100 µM (inactive) | > 100 µM (inactive) | 4.95 µM (inactive) | > 100 µM (inactive) | > 100 µM (inactive) | > 100 µM (inactive) | > 100 µM (inactive)
